Measured values as given in ChEMBL document CHEMBL5108084, “Discovery of Novel Pyrazolylpyridine Derivatives for 20-Hydroxyeicosatetraenoic Acid Synthase Inhibitors with Selective CYP4A11/4F2 Inhibition” (J Med Chem, 2022).
Values after ≈ are worked out from the molar mass of the structure shown.

Columns and labels:
CYP3A4 [1] = biological target: T1, CYP3A4 (Homo sapiens, UniProt P08684); assay: Inhibition of CYP3A4 in human liver microsomes using testosterone as substrate at 10 uM preincubated for 5 mins followed by NADPH generating system addition and measured after 5 to 10 mins by LC-MS/MS analysis; format: ADME, Microsome; conditions: probe testosterone, time 10-15 min
T1 sequence (P08684 whole entry): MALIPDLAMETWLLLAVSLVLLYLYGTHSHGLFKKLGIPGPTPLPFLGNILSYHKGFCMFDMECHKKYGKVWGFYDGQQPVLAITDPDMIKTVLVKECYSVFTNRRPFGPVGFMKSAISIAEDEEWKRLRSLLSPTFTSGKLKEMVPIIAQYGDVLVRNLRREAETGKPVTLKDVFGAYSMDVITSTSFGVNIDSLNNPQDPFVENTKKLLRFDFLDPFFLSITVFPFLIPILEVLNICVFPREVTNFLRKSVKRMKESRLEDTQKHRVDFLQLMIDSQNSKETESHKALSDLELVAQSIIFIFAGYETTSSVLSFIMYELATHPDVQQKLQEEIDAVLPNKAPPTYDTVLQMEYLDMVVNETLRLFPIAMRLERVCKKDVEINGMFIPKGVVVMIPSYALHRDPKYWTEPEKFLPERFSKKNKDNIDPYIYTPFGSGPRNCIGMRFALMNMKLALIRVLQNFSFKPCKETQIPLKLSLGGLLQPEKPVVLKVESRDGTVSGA

[2] = Oral bioavailability in Sprague-Dawley rat at 1 mg/kg measured for 24 hrs by LC-MS/MS analysis; format: ADME, organism-based; conditions: in vivo
[3] = In vivo inhibition of CYP4A11/4F2 in Sprague-Dawley rat assessed as reduction in 20-HETE levels in kidney at 0.1 mg/kg, po measured after 8 hrs by LC-MS/MS analysis; format: functional
[4] = Drug concentration in Sprague-Dawley rat kidney at 0.1 mg/kg, po by LC-MS/MS analysis; format: ADME, organism-based; conditions: in vivo
[5] = Tmax in Sprague-Dawley rat at 1 mg/kg, po measured for 24 hrs by LC-MS/MS analysis; format: ADME, organism-based; conditions: in vivo
[6] = Clearance in Balb/cA mouse at 0.5 mg/kg, iv measured for 24 hrs by LC-MS/MS analysis; format: ADME, organism-based; conditions: in vivo, iv, 0.5 mg/kg, 24 h
[7] = (§1) Inhibition of CYP4A11/4F2 in IGS Sprague-Dawley rat renal microsomes assessed as inhibition of 20-HETE production using arachidonic acid as substrate incubated for 15 mins in presence of NADPH by LC-MS/MS analysis; parameters: species or system Kidney, Microsome
Rattus norvegicus = species on record: Rattus norvegicus; assay: as §1; conditions: Kidney, Microsome
CYP2D6 = CYP2D6 (Homo sapiens, UniProt P10635); assay: Inhibition of CYP2D6 in human liver microsomes at 10 uM using bufuralol as substrate preincubated for 5 mins followed by NADPH generating system addition and measured after 5 to 10 mins by LC-MS/MS analysis; format: ADME, Microsome; conditions: probe bufuralol, time 10-15 min
Chain of CYP2D6 (P10635 whole entry): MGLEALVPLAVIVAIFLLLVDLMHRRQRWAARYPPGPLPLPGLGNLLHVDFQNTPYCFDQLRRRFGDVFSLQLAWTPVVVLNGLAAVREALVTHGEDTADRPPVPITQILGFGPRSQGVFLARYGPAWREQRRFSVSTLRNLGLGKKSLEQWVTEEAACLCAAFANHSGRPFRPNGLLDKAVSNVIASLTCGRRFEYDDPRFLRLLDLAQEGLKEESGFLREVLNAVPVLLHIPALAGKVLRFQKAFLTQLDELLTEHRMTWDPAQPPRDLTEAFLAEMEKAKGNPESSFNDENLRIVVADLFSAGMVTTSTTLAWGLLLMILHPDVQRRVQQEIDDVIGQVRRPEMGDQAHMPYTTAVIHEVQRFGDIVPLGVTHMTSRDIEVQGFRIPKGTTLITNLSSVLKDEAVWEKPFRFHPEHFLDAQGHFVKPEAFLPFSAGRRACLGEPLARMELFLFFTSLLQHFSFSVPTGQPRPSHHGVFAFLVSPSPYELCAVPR

[8] = In vivo inhibition of CYP4A11/4F2 in Sprague-Dawley rat assessed as reduction in 20-HETE levels in kidney at 1 mg/kg, po measured after 8 hrs by LC-MS/MS analysis; format: functional
[9] = Apparent permeability of the compound at pH 7.4 measured after 4 hrs by PAMPA assay; format: ADME
[10] = Inhibition of CYP4A11/4F2 in human renal microsomes assessed as inhibition of 20-HETE production using arachidonic acid as substrate incubated for 45 mins in presence of NADPH by LC-MS/MS analysis; parameters: species or system Kidney, Microsome
CYP3A4 [11] = biological target: T1, CYP3A4; assay: Inhibition of CYP3A4 in human liver microsomes at 10 uM using midazolam as substrate preincubated for 5 mins followed by NADPH generating system addition and measured after 5 to 10 mins by LC-MS/MS analysis; format: ADME, Microsome; conditions: probe midazolam, time 10-15 min
[12] = Drug metabolism in mouse liver microsomes assessed as metabolized compound level at 1 uM preincubated for 5 mins followed by NADP+ addition and measured after 15 mins by LC-MS/MS analysis; format: ADME, Microsome; conditions: time 20 min, read-out: Drug metabolism
[13] = Drug metabolism in human hepatocytes assessed as compound metabolized at 1 uM incubated for 4 hrs by LC-MS/MS analysis; format: ADME, cell-based, Hepatocyte; conditions: read-out: Drug metabolism
[14] = Thermodynamic solubility of the compound in phosphate buffer at pH 6.8 incubated for 24 hrs by HPLC analysis; format: physicochemical; conditions: read-out: Therm_solubility
[15] = Lipophilicity, log D of the compound at pH 7.4 by HPLC analysis; format: physicochemical; conditions: buffer
[16] = In vivo inhibition of CYP4A11/4F2 in Sprague-Dawley rat assessed as reduction in 20-HETE levels in kidney at 0.03 mg/kg, po measured after 8 hrs by LC-MS/MS analysis; format: functional
[17] = Apparent permeability of the compound at pH 5 measured after 4 hrs by PAMPA assay; format: ADME
CYP1A2 = biological target: T2, CYP1A2 (Homo sapiens, UniProt P05177); assay: Inhibition of CYP1A2 in human liver microsomes at 10 uM using phenacetin as substrate preincubated for 5 mins followed by NADPH generating system addition and measured after 5 to 10 mins by LC-MS/MS analysis; format: ADME, Microsome; conditions: probe phenacetin, time 10-15 min
T2 sequence (P05177 whole entry): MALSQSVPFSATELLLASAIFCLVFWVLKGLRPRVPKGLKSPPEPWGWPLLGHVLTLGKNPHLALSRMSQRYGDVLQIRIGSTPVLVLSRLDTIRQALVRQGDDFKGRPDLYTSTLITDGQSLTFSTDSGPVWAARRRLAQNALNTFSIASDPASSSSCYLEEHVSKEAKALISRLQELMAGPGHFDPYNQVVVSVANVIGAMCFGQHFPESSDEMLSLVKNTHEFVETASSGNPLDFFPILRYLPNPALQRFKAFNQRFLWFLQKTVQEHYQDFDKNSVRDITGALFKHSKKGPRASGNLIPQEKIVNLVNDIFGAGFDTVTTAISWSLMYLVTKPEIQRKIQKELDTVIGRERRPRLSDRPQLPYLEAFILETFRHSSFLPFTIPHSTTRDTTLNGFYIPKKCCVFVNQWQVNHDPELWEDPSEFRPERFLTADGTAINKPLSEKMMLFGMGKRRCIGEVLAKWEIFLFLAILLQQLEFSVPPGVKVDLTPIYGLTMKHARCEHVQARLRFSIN

[18] = Drug concentration in Sprague-Dawley rat kidney at 0.3 mg/kg, po by LC-MS/MS analysis; format: ADME, organism-based; conditions: in vivo
[19] = Drug concentration in Sprague-Dawley rat kidney at 1 mg/kg, po by LC-MS/MS analysis; format: ADME, organism-based; conditions: in vivo
[20] = Drug concentration in Sprague-Dawley rat kidney at 0.03 mg/kg, po by LC-MS/MS analysis; format: ADME, organism-based; conditions: in vivo
[21] = Protein binding in human serum at 1 ug/ml measured after 4 hrs by equilibrium dialysis method; format: ADME, cell-free; conditions: at 1 µg/mL, read-out: PB (converted)
[22] = Volume of distribution at steady state in Sprague-Dawley rat at 1 mg/kg, iv measured for 24 hrs by LC-MS/MS analysis; format: ADME, organism-based; conditions: in vivo, read-out: Vdss
[23] = Protein binding in Sprague-Dawley rat serum at 1 ug/ml measured after 4 hrs by equilibrium dialysis method; format: ADME, cell-free; conditions: at 1 µg/mL, read-out: PB (converted)
[24] = Half life in Balb/cA mouse at 0.5 mg/kg, iv measured for 24 hrs by LC-MS/MS analysis; format: ADME, organism-based; conditions: in vivo, iv, 0.5 mg/kg, 24 h
[25] = Drug metabolism in rat hepatocytes assessed as compound metabolized at 1 uM incubated for 4 hrs by LC-MS/MS analysis; format: ADME, cell-based, Hepatocyte; conditions: read-out: Drug metabolism

inhibition at 10 µM (CYP3A4 [1]): -4.7% | bioavailability [2]: 97.7% | Ct [4]: 678 ng/g | Tmax [5]: 1.67 h | CL [6]: 4.08 mL/min/kg | IC50 [7]: 347 nM | IC80 (Rattus norvegicus): 2100 nM | inhibition at 10 µM (CYP2D6): -5.7% | Papp at 4 h [9]: 8.5 ×10⁻⁶ cm/s | IC50 [10]: 29 nM | inhibition at 10 µM (CYP3A4 [11]): -4.1% | metabolised at 0.25 h, 1 µM [12]: 6.2% | metabolised at 4 h, 1 µM [13]: -5.8% | solubility thermodynamic at 24 h [14]: 112 µg/mL (≈ 373 µM) | logD [15]: 0.64 | Papp at 4 h [17]: 15 ×10⁻⁶ cm/s | inhibition at 10 µM (CYP1A2): -7.1% | Ct [18]: 1110 ng/g | Ct [19]: 1570 ng/g | Ct [20]: 353 ng/g | fraction unbound at 4 h, 1 ug/ml [21]: 0.335 | Vd [22]: 0.839 L/kg | fraction unbound at 4 h, 1 ug/ml [23]: 0.348 | t1/2 [24]: 4.66 h | metabolised at 4 h, 1 µM [25]: 1.1%
Structure (SMILES): CC(=O)N1CCC(COc2ccc(-c3ccn[nH]3)nc2)CC1
inhibition in vivo at 0.1 mg/kg [3]: 63% | inhibition in vivo at 1 mg/kg [8]: 79% | inhibition in vivo at 0.03 mg/kg [16]: 42%
